Publication PMC7583830 (Molecules, 2020)
Several values for one entry are separate records, joined by “and”; a condition that tells them apart may be missing. Identical values can stand only once. Where a SMILES comes first, the peptide text is derived from it. [ ]: non-standard residue; d: D form. The star is where a group is joined. DOTA = O=C(O)CN1CCN(CC(=O)O)CCN(CC(=O)*)CCN(CC(=O)O)CC1; 1Nal = N[C@@H](Cc1cccc2ccccc12)C(=O)O; NMeNle = CCCC[C@H](NC)C(=O)O

Assay: Metabolic stability in vivo and radiometabolites (radio-HPLC of blood, urine, liver, kidney)
Design: species or system BALB/c mice
Procedure: Metabolic biodistribution studies were performed in accordance with the ethical standards of the institution and approved by the Austrian Ministry of Science (BMWFW-66.011/0072-V/3b/2019). These studies were carried out in 5- to 7-week-old female BALB/c mice (n = 3) injected with [^177Lu]Lu-1 via a lateral tail vein. To allow monitoring of the metabolites by radio-HPLC, mice were injected with 30 MBq corresponding to 0.8 nmol total peptide. The mice were euthanized by cervical dislocation after different time points of 10 min, 30 min and 1 h p.i. and the urine and a venous blood sample were collected at the time of sacrifice. Liver and kidneys were dissected and homogenized in 20 mM HEPES buffer pH 7.3 at a ratio of 1:1 (v/v) with an Ultra-Turrax T8 homogenizer (IKA-Werke, Staufen, Germany) for 1 min at RT. Before radio-HPLC analysis, the samples (except urine) were treated with ACN at a ratio of 1:1 (v/v) to precipitate proteins, centrifuged at 2000× g for 2 min and diluted with water at a ratio of 1:1 (v/v). For HPLC analysis of the samples, the analytical HPLC system described above with a flow rate of 1 mL/min was used together with the following optimized water/ACN/0.1% TFA gradient to allow a better separation of [^177Lu]Lu-1 and the different radiometabolites: 0–7 min 1–7% ACN, 7–8 min 7–10% ACN, 8–18 min 10–18% ACN, 18–20 min 18–32% ACN, 20–27 min 32% ACN, 27–37 min […], 37–40 min 80% ACN, 40–40.1 min 80–1% ACN, 40.1–45 min 1% ACN. Urine was measured with the low-sensitivity loop of the radiodetector. The remaining samples were analyzed with the high-sensitivity loop due to the lower radioactivity present in blood, liver and kidney homogenate. To quantify the percentage of intact [^177Lu]Lu-1 and [^177Lu]Lu-M1 showing some overlap in the radiochromatogram when using the high-sensitivity loop of the radiodetector, the two radiopeptides were co-injected at different known ratios to enable a more accurate separation and integration of the two peaks (see supporting Figure S4). Mice from the metabolic biodistribution studies were subjected to a further dissection of all remaining tissues (blood, lung, heart, femur, spleen, muscle, intestine, pancreas and stomach). All organs, also including liver and kidneys, were weighed, and their radioactivity was measured in the gamma counter together with a standard and the residual body. To quantify the uptake of radioactivity in liver and kidneys, a part of liver and kidney homogenate was measured in the gamma counter to extrapolate the radioactivity for the whole organ.

- total amount of radiometabolites (blood, 10 min p.i.): 19.5%
- total amount of radiometabolites (blood, 30 min p.i.): 35.9%
- percentage of intact radiopeptide / radiometabolite (blood, 30 min p.i., mice injected i.v. with [177Lu]Lu-1): 64.1%
- total amount of radiometabolites (blood, 60 min p.i.): 43.1%
- percentage of intact radiopeptide / radiometabolite (blood, 60 min p.i., mice injected i.v. with [177Lu]Lu-1): 56.9%
- percentage of intact radiopeptide / radiometabolite (kidney homogenate soluble phase, 10 min p.i.): 29.7%
- percentage of intact radiopeptide / radiometabolite (kidney, 30 min p.i.): 18.0%
- percentage of intact radiopeptide / radiometabolite (kidney, 60 min p.i.): 7.0%
- intact radiopeptide (kidneys and urine, studied time points): < 30%
- percentage of intact radiopeptide / radiometabolite (liver homogenate soluble phase, 10 min p.i.): 71.9%
- percentage of intact radiopeptide / radiometabolite (liver, 30 min p.i.): 53.9%
- percentage of intact radiopeptide / radiometabolite (liver, 60 min p.i.): 47.7%
- percentage of intact radiopeptide / radiometabolite (urine, 10 min p.i.): 29.1% and 29%
- percentage of intact radiopeptide / radiometabolite (urine, 30 min p.i.): 19.4%
- percentage of intact radiopeptide / radiometabolite (urine, 60 min p.i.): 18%
SMILES: CCCC[C@@H](C(=O)N[C@@H](CC(=O)O)C(=O)N[C@@H](Cc1cccc2ccccc12)C(N)=O)N(C)C(=O)[C@H](Cc1c[nH]c2ccccc12)NC(=O)CNC(=O)[C@H](Cc1ccc(O)cc1)NC(=O)[C@@H]1CCCN1C(=O)[C@@H](CCC(=O)O)NC(=O)CN1CCN(CC(=O)O)CCN(CC(=O)O)CCN(CC(=O)O)CC1 [[^177Lu]Lu-1, metal not drawn] ({DOTA}-[dE]PYGW[NMeNle]D[1Nal]-NH2)
